In patent US8551984B2, “Aminopyrimidines as SYK inhibitors” (Merck Sharp & Dohme Corp., priority 2009, dated 2013) one finds IC50 data, which are given here for 66 compounds.

This assay deals with recombinant human SYK (GST-hSYK fusion protein) (Homo sapiens, UniProt P43405). Description: biochemical.
Where [1] appears, read: rhSYK Activity (IC50), recombinant human GST-SYK 5 pM, ATP 25 μM, biotinylated substrate peptide 250 nM, HTRF, 10-dose titration.

For orientation: IC50 means the concentration that inhibits the measured activity by half.

Source text: Homogeneous Time-Resolved Fluorescence (HTRF) Assay for the Recombinant Human SYK Enzyme:

As for `Cc1cc(Nc2nccc(C3CCCC3)n2)cc(-c2cnc(C3(O)CCC3)s2)c1` [Example 107-1], the half-inhibitory concentration (IC50) under setting [1] was < 0.1 µM.
Still for that read-out and setting: next, `Cc1cc(Nc2nccc(C3CCCCC3)n2)cc(-c2cnc(C3(O)CCC3)s2)c1` [Example 107-2]: < 0.1 µM.
`Cc1cc(Nc2nccc(OCc3nccn3C)n2)cc(-c2cnc(C3(O)CCC3)s2)c1` [Example 108A-1]: the IC50 (rhSYK Activity, Table 108A) is < 0.1 µM.
The same measure, in the same setting: the same measure for `Cc1cc(Nc2nccc(OCc3c[nH]cn3)n2)cc(-c2cnc(C3(O)CCC3)s2)c1` [Example 108A-2]: < 0.1 µM.
Turning to `Cc1cc(Nc2nccc(OCCN3CCOCC3=O)n2)cc(-c2cnc(C3(O)CCC3)s2)c1` [Example 108A-3], the half-maximal inhibitory concentration (IC50) (rhSYK Activity, Table 108A) was < 0.1 µM.
On the same count and under the same terms, next, `Cc1cc(Nc2nccc(OCC3CCCOC3)n2)cc(-c2cnc(C3(O)CCC3)s2)c1` (stereo not drawn) [Example 108A-4]: < 0.1 µM.
The same measure, in the same setting: next, `Cc1cc(Nc2nccc(OC(CN)c3ccncn3)n2)cc(-c2cnc(C3(O)CCC3)s2)c1` (stereo not drawn) [Example 108A-6]: < 0.1 µM; `Cc1cc(Nc2nccc(OCc3cccc4ccnn34)n2)cc(-c2cnc(C3(O)CCC3)s2)c1` [Example 108A-7]: 0.1 to 1 µM.
Still for that read-out and setting: the same measure for `Cc1cc(Nc2nccc(OCCc3cnn(C)c3)n2)cc(-c2cnc(C3(O)CCC3)s2)c1` [Example 108A-8]: < 0.1 µM; for `Cc1cc(Nc2nccc(OCc3ccon3)n2)cc(-c2cnc(C3(O)CCC3)s2)c1` [Example 108A-9]: < 0.1 µM.
In the case of `Cc1cc(Nc2nccc(OCCn3nccn3)n2)cc(-c2cnc(C3(O)CCC3)s2)c1` [Example 108A-12], the IC50 (rhSYK Activity, Table 108A) was < 0.1 µM.
Same read-out and setting: next, `Cc1cc(Nc2nccc(OCCn3ccnn3)n2)cc(-c2cnc(C3(O)CCC3)s2)c1` [Example 108A-13]: < 0.1 µM; `Cc1cc(Nc2nccc(OCCNC3CCN(C)CC3)n2)cc(-c2cnc(C3(O)CCC3)s2)c1` [Example 108A-14]: 0.1 to 1 µM.
The same measure, in the same setting: the same measure for `Cc1cc(Nc2nccc(OCC3Cc4ccccc4N3)n2)cc(-c2cnc(C3(O)CCC3)s2)c1` (stereo not drawn) [Example 108A-15]: 0.1 to 1 µM; for `Cc1cc(Nc2nccc(OCc3ccnn3C)n2)cc(-c2cnc(C3(O)CCC3)s2)c1` [Example 108A-16]: < 0.1 µM; for `Cc1cc(Nc2nccc(OCCN3CCCNCC3)n2)cc(-c2cnc(C3(O)CCC3)s2)c1` [Example 108A-19]: < 0.1 µM.
Still for that read-out and setting: the same measure for `Cc1cc(Nc2nccc(OCC3CN(C)CCN3C)n2)cc(-c2cnc(C3(O)CCC3)s2)c1` (stereo not drawn) [Example 108A-20]: < 0.1 µM; for `Cc1cc(Nc2nccc(OCCc3nnn[nH]3)n2)cc(-c2cnc(C3(O)CCC3)s2)c1` [Example 108A-21]: < 0.1 µM; for `Cc1cc(Nc2nccc(OCC#Cc3cncnc3)n2)cc(-c2cnc(C3(O)CCC3)s2)c1` [Example 108A-22]: 0.1 to 1 µM.
In the case of `Cc1cc(Nc2nccc(OCC3CC(=O)N(C)C3)n2)cc(-c2cnc(C3(O)CCC3)s2)c1` (stereo not drawn) [Example 108A-23], the IC50 (rhSYK Activity, Table 108A) is < 0.1 µM.
As for `Cc1cc(Nc2nccc(OCC3(C)CCCNC3)n2)cc(-c2cnc(C3(O)CCC3)s2)c1` (stereo not drawn) [Example 108A-24], the IC50 (rhSYK Activity, Table 108A) was < 0.1 µM.
On the same count and under the same terms, next, `Cc1cc(Nc2nccc(OCCC3CN(C)CCO3)n2)cc(-c2cnc(C3(O)CCC3)s2)c1` (stereo not drawn) [Example 108A-25]: < 0.1 µM; `Cc1cc(Nc2nccc(OC(C)CN3CC(C)OC3=O)n2)cc(-c2cnc(C3(O)CCC3)s2)c1` (stereo not drawn) [Example 108A-27]: < 0.1 µM; `Cc1cc(Nc2nccc(OCCOc3cccc(O)c3)n2)cc(-c2cnc(C3(O)CCC3)s2)c1` [Example 108A-28]: 0.1 to 1 µM.
Same read-out and setting: the same measure for `Cc1cc(Nc2nccc(OCCCc3cccnc3)n2)cc(-c2cnc(C3(O)CCC3)s2)c1` [Example 108A-29]: < 0.1 µM.
The same measure, in the same setting: the same measure for `Cc1cc(Nc2nccc(OCCN3CCCC3=O)n2)cc(-c2cnc(C3(O)CCC3)s2)c1` [Example 108A-30]: < 0.1 µM; for `Cc1cc(Nc2nccc(OCCCCO)n2)cc(-c2cnc(C3(O)CCC3)s2)c1` [Example 108A-31]: < 0.1 µM.
As for `Cc1cc(Nc2nccc(OCCO)n2)cc(-c2cnc(C3(O)CCC3)s2)c1` [Example 108A-34], the IC50 (rhSYK Activity, Table 108A) is < 0.1 µM.
On the same count and under the same terms, next, `Cc1cc(Nc2nccc(OCCCO)n2)cc(-c2cnc(C3(O)CCC3)s2)c1` [Example 108A-35]: < 0.1 µM; `CCOc1ccnc(Nc2cc(C)cc(-c3cnc(C4(O)CCC4)s3)c2)n1` [Example 108A-36]: < 0.1 µM; `Cc1cc(Nc2nccc(OC(C)C)n2)cc(-c2cnc(C3(O)CCC3)s2)c1` [Example 108A-37]: < 0.1 µM.
The same measure, in the same setting: next, `Cc1cc(Nc2nccc([S+](C)[O-])n2)cc(-c2cnc(C3(O)CCC3)s2)c1` (stereo not drawn) [Example 108A-38]: < 0.1 µM.
Same read-out and setting: the same measure for `Cc1cc(Nc2nccc(S(C)(=O)=O)n2)cc(-c2cnc(C3(O)CCC3)s2)c1` [Example 108A-39]: < 0.1 µM.
Consider `CCSc1ccnc(Nc2cc(C)cc(-c3cnc(C4(O)CCC4)s3)c2)n1` [Example 108A-40], for which, for the setting “rhSYK Activity, Table 108A”, the IC50 was < 0.1 µM.
The same measure, in the same setting: the same measure for `CCCCSc1ccnc(Nc2cc(C)cc(-c3cnc(C4(O)CCC4)s3)c2)n1` [Example 108A-41]: 0.1 to 1 µM.
Still for that read-out and setting: next, `Cc1cc(Nc2nccc(SC(C)C)n2)cc(-c2cnc(C3(O)CCC3)s2)c1` [Example 108A-43]: < 0.1 µM; `Cc1cc(Nc2nccc(SCCO)n2)cc(-c2cnc(C3(O)CCC3)s2)c1` [Example 108A-44]: < 0.1 µM; `Cc1cc(Nc2nccc(SCCCO)n2)cc(-c2cnc(C3(O)CCC3)s2)c1` [Example 108A-45]: < 0.1 µM.
The same measure, in the same setting: next, `Cc1cc(Nc2nccc(SCCCCO)n2)cc(-c2cnc(C3(O)CCC3)s2)c1` [Example 108A-46]: < 0.1 µM.
Regarding `CC(=O)N1CCC(Oc2ccnc(Nc3cc(N)cc(-c4cnc(C5(O)CCC5)s4)c3)n2)CC1` [Example 109-6], the IC50 (rhSYK Activity, Table 109) was < 0.1 µM.
The same measure, in the same setting: next, `O=C(Nc1cc(Nc2nccc(OC3CCOCC3)n2)cc(-c2cnc(C3(O)CCC3)s2)c1)C(F)(F)F` [Example 109-7]: 0.1 to 1 µM; `CC(=O)Nc1cc(Nc2nccc(OC3CCOCC3)n2)cc(-c2cnc(C3(O)CCC3)s2)c1` [Example 109-8]: < 0.1 µM.
The same measure, in the same setting: next, `Nc1cc(Nc2nccc(OC3CCOCC3)n2)cc(-c2cnc(C3(O)CCC3)s2)c1` [Example 109-9]: < 0.1 µM; `NC(=O)Nc1cc(Nc2nccc(OC3CCNCC3)n2)cc(-c2cnc(C3(O)CCC3)s2)c1` [Example 109-11]: < 0.1 µM.
On to `Nc1cc(Nc2nccc(OC3CCNCC3)n2)cc(-c2cnc(C3(O)CCC3)s2)c1` [Example 109-12], for which the concentration for half-maximal inhibition (IC50) (rhSYK Activity, Table 109) was < 0.1 µM.
The same measure, in the same setting: next, `Nc1cc(Nc2nccc(OC3CNC3)n2)cc(-c2cnc(C3(O)CCC3)s2)c1` [Example 109-14]: < 0.1 µM.
Turning to `Cc1cc(Nc2nccc(C(F)(F)F)n2)cc(-c2cnc([C@@]3(O)CC[C@H](C(=O)O)C(C)(C)C3)s2)c1Br` [Example 111, (1S,4R)-4-[5-(2-bromo-3-methyl-5-{[4-(trifluoromethyl)pyrimidin-2-yl]amino}phenyl)-1,3-thiazol-2-yl]-4-hydroxy-2,2-dimethylcyclohexanecarboxylic acid], the concentration for half-maximal inhibition (IC50) under setting [1] is < 0.1 µM.
Turning to `COCCOc1ccnc(Nc2cc(C)cc(-c3cnc(C4(O)CCC(C(=O)O)CC4)s3)c2)n1` (stereo not drawn) [Example 113A-1], the IC50 (rhSYK Activity, Table 113A) is < 0.1 µM.
Take `COCCCOc1ccnc(Nc2cc(C)cc(-c3cnc([C@]4(O)CC[C@@H](C(=O)O)CC4)s3)c2)n1` [Example 113A-2]: the IC50 (rhSYK Activity, Table 113A) is < 0.1 µM.
Still for that read-out and setting: next, `O=C(O)[C@H]1CC[C@](O)(c2ncc(-c3cc(Cl)cc(Nc4nccc(C(F)(F)F)n4)c3)s2)CC1` [Example 113A-3]: < 0.1 µM.
Same read-out and setting: the same measure for `Cc1cc(Nc2nccc(C)n2)cc(-c2cnc(C3(O)CCC(C(=O)O)C(C)C3)s2)c1` (stereo not drawn) [Example 113A-4]: < 0.1 µM.
On the same count and under the same terms, next, `COC(=O)C1CCC(O)(c2ncc(-c3cc(C)cc(Nc4nccc(C)n4)c3)s2)CC1C` (stereo not drawn) [Example 113A-8]: < 0.1 µM.
In the case of `COC(=O)C1CCC(O)(c2ncc(-c3cc(C)cc(Nc4nccc(C)n4)c3)s2)CC1C` (stereo not drawn) [Example 113A-9], the IC50 (rhSYK Activity, Table 113A) was 0.1 to 1 µM.
Same read-out and setting: the same measure for `COC(=O)C1CCC(O)(c2ncc(-c3cc(C)cc(Nc4nccc(C)n4)c3)s2)CC1C` (stereo not drawn) [Example 113A-10]: < 0.1 µM; for `COC(=O)C1CCC(O)(c2ncc(-c3cc(C)cc(Nc4nccc(C)n4)c3)s2)CC1C` (stereo not drawn) [Example 113A-11]: < 0.1 µM; for `COC(=O)C1CCC(O)(c2ncc(-c3cc(C)cc(Nc4nccc(C)n4)c3)s2)CC1C` (stereo not drawn) [Example 113A-12]: 0.1 to 1 µM.
Same read-out and setting: the same measure for `COC(=O)C1CCC(O)(c2ncc(-c3cc(C)cc(Nc4nccc(C)n4)c3)s2)CC1C` (stereo not drawn) [Example 113A-13]: 0.1 to 1 µM.
Still for that read-out and setting: next, `CCc1ccnc(Nc2cc(C)cc(-c3cnc(C4(O)CCC(C(=O)O)C(C)C4)s3)c2)n1` (stereo not drawn) [Example 113A-14]: < 0.1 µM; `COc1ccnc(Nc2cc(C)cc(-c3cnc([C@@]4(O)CC[C@H](C(=O)O)[C@H](C)C4)s3)c2)n1` [Example 113A-16]: < 0.1 µM; `Cc1cc(Nc2ncc(F)c(C)n2)cc(-c2cnc([C@]3(O)CC[C@@H](C(=O)O)[C@@H](C)C3)s2)c1` [Example 113A-19]: < 0.1 µM.
Take `Cc1cc(Nc2nccc(C3CC3)n2)cc(-c2cnc([C@]3(O)CC[C@@H](C(=O)O)[C@@H](C)C3)s2)c1` [Example 113A-20]: the IC50 (rhSYK Activity, Table 113A) was < 0.1 µM.
Same read-out and setting: the same measure for `Cc1cc(Nc2nccc(C3CC3)n2)cc(-c2cnc([C@@]3(O)CC[C@H](C(=O)O)[C@H](C)C3)s2)c1` [Example 113A-21]: < 0.1 µM; for `Cc1cc(Nc2nccc(C3CC3)n2)cc(-c2cnc(C3(O)CCC(C(=O)O)C(C)C3)s2)c1` (stereo not drawn) [Example 113A-22]: < 0.1 µM; for `Cc1ccnc(Nc2cc(-c3cnc(C4(O)CCC(C(=O)O)C(C)C4)s3)cc(C3CC3)c2)n1` (stereo not drawn) [Example 113A-23]: < 0.1 µM.
Still for that read-out and setting: next, `Cc1cc(Nc2nccc(C(C)C)n2)cc(-c2cnc([C@@]3(O)CC[C@H](C(=O)O)[C@H](C)C3)s2)c1` [Example 113A-25]: < 0.1 µM; `Cc1cc(Nc2nccc(C(C)C)n2)cc(-c2cnc([C@]3(O)CC[C@@H](C(=O)O)[C@@H](C)C3)s2)c1` [Example 113A-26]: < 0.1 µM.
